Results reported in patent US20220251116A1, “ALKYLBORONIC ACIDS AS ARGINASE INHIBITORS” (Guangdong Newopp Biopharmaceuticals Co., Ltd., priority 2019, published 2022).
Structures can show the parent of a compound that is named as a salt.

Molecular target: T1, recombinant human arginase 1 (Homo sapiens, UniProt P05089)
T1 sequence (P05089 1-322): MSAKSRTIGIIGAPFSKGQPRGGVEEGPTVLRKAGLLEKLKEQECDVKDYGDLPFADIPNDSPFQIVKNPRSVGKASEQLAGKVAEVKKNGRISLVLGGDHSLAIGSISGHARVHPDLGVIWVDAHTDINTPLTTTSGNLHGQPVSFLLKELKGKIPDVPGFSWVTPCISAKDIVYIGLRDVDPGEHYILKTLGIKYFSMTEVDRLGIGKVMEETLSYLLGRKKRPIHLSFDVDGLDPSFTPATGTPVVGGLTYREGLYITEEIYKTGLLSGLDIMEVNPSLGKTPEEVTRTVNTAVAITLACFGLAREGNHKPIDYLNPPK
Test: Arginase inhibitory activity test, enzymatic assay based on urea measurement (Arg 1);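 further: enzyme incubated with L-arginine substrate and compound at 37 °C for 120 min, urea product detected colorimetrically by absorbance at 450 nm, background from wells lacking enzyme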
Details: not given

Row | Compound | IC50
1 | N[C@@]1(C(=O)O)CN(S(=O)(=O)NC2CNC2)C[C@@H]1CCCB(O)O (racemic) [Example 34, (rac)-trans-3-amino-1-(N-(azetidin-3-yl)sulfamoyl)-4-(3-boronopropyl)pyrrolidine-3-carboxylic acid, 2,2,2-trifluoroacetic acid salt (1:2)] | < 100 nM
2 | CN(CCN)S(=O)(=O)N1C[C@H](CCCB(O)O)[C@](N)(C(=O)O)C1 [Example 27, (3R,4S)-3-amino-1-(N-(2-aminoethyl)-N-methylsulfamoyl)-4-(3-boronopropyl)pyrrolidine-3-carboxylic acid, 2,2,2-trifluoroacetic acid salt (1:2)] | < 100 nM
3 | NCCCNS(=O)(=O)N1C[C@H](CCCB(O)O)[C@](N)(C(=O)O)C1 (racemic) [Example 21, (rac)-trans-3-amino-1-(N-(3-aminopropyl)sulfamoyl)-4-(3-boronopropyl)pyrrolidine-3-carboxylic acid (diastereomers), 2,2,2-trifluoroacetic acid salt (1:2)] | 100 to 1000 nM
4 | CN1CCN(S(=O)(=O)N2C[C@H](CCCB(O)O)[C@](N)(C(=O)O)C2)CC1 (racemic) [Example 44, (racemic)-trans-3-amino-4-(3-boronopropyl)-1-((4-methylpiperazin-1-yl)sulfonyl)pyrrolidine-3-carboxylic acid, 2,2,2-trifluoroacetic acid salt (1:2)] | 100 to 1000 nM
5 | CC(C)CN(C1CNC1)S(=O)(=O)N1C[C@H](CCCB(O)O)[C@](N)(C(=O)O)C1 [Example 60, (3R,4S)-3-amino-1-(N-(azetidin-3-yl)-N-isobutylsulfamoyl)-4-(3-boronopropyl)pyrrolidine-3-carboxylic acid, 2,2,2-trifluoroacetic acid salt (1:2)] | < 100 nM
6 | NCCN(CC1CC1)S(=O)(=O)N1C[C@H](CCCB(O)O)[C@](N)(C(=O)O)C1 [Example 67, (3R,4S)-3-amino-1-(N-(2-aminoethyl)-N-(cyclopropylmethyl)sulfamoyl)-4-(3-boronopropyl)pyrrolidine-3-carboxylic acid, 2,2,2-trifluoroacetic acid salt (1:2)] | < 100 nM
7 | CN(CCN)c1c(N2C[C@H](CCCB(O)O)[C@](N)(C(=O)O)C2)c(=O)c1=O [Example 29, (3R,4S)-3-amino-1-(2-((2-aminoethyl)(methyl)amino)-3,4-dioxocyclobut-1-en-1-yl)-4-(3-boronopropyl)pyrrolidine-3-carboxylic acid, 2,2,2-trifluoroacetic acid salt (1:2)] | < 100 nM
8 | N[C@@]1(C(=O)O)CN(S(=O)(=O)N(Cc2ccccc2)C2CNC2)C[C@@H]1CCCB(O)O [Example 62, (3R,4S)-3-amino-1-(N-(azetidin-3-yl)-N-benzylsulfamoyl)-4-(3-boronopropyl)pyrrolidine-3-carboxylic acid, 2,2,2-trifluoroacetic acid salt (1:2)] | < 100 nM
9 | CCCN(C1CNC1)S(=O)(=O)N1C[C@H](CCCB(O)O)[C@](N)(C(=O)O)C1 [Example 59, (3R,4S)-3-amino-1-(N-(azetidin-3-yl)-N-propylsulfamoyl)-4-(3-boronopropyl)pyrrolidine-3-carboxylic acid, 2,2,2-trifluoroacetic acid salt (1:2)] | < 100 nM
10 | NC1CC(NS(=O)(=O)N2C[C@H](CCCB(O)O)[C@](N)(C(=O)O)C2)C1 (mixture of isomers) [Example 24, (rac)-trans-3-amino-1-(N-((rac)trans-3-aminocyclobutyl)sulfamoyl)-4-(3-boronopropyl)pyrrolidine-3-carboxylic acid compound with 2,2,2-trifluoroacetic acid (1:2)] | < 100 nM
11 | NC(=O)CNS(=O)(=O)N1C[C@H](CCCB(O)O)[C@](N)(C(=O)O)C1 (racemic) [Example 7, (rac)trans-3-amino-1-(N-(2-amino-2-oxoethyl)sulfamoyl)-4-(3-boronopropyl)pyrrolidine-3-carboxylic acid, (1:1) 2,2,2-trifluoroacetic acid salt] | 1000 to 10000 nM
12 | N[C@@]1(C(=O)O)CN(S(=O)(=O)N(CC(F)(F)F)C2CNC2)C[C@@H]1CCCB(O)O [Example 66, (3R,4S)-3-amino-1-(N-(azetidin-3-yl)-N-(2,2,2-trifluoroethyl)sulfamoyl)-4-(3-boronopropyl)pyrrolidine-3-carboxylic acid, 2,2,2-trifluoroacetic acid salt (1:2)] | < 100 nM
13 | N[C@H]1COCC1NS(=O)(=O)N1C[C@H](CCCB(O)O)[C@](N)(C(=O)O)C1 (mixture of isomers) [Example 23, (rac)-trans-3-amino-1-(N-((rac)cis-4-aminotetrahydrofuran-3-yl)sulfamoyl)-4-(3-boronopropyl)pyrrolidine-3-carboxylic acid (diastereomers), 2,2,2-trifluoroacetic acid salt (1:2)] | 100 to 1000 nM
14 | COC(=O)[C@@H](N)CNS(=O)(=O)N1C[C@H](CCCB(O)O)[C@](N)(C(=O)O)C1 (racemic) [Example 55] | < 100 nM
15 | CNS(=O)(=O)N1C[C@H](CCCB(O)O)[C@](N)(C(=O)O)C1 (racemic) [Example 2, (rac)trans-3-amino-4-(3-boronopropyl)-1-(N-methylsulfamoyl)pyrrolidine-3-carboxylic acid, (1:1) 2,2,2-trifluoroacetic acid salt] | 1000 to 10000 nM
16 | NC1(CNS(=O)(=O)N2C[C@H](CCCB(O)O)[C@](N)(C(=O)O)C2)COC1 (racemic) [Example 39, (rac)-trans-3-amino-1-(N-((3-aminooxetan-3-yl)methyl)sulfamoyl)-4-(3-boronopropyl)pyrrolidine-3-carboxylic acid, 2,2,2-trifluoroacetic acid salt (1:2)] | 100 to 1000 nM
17 | C[C@@H](N)CNS(=O)(=O)N1C[C@H](CCCB(O)O)[C@](N)(C(=O)O)C1 (racemic) [Example 17, (rac)trans-3-amino-1-(N-((R)-2-aminopropyl)sulfamoyl)-4-(3-boronopropyl)pyrrolidine-3-carboxylic acid (diastereomers), 2,2,2-trifluoroacetic acid salt (1:2) (Diasteromers)] | < 100 nM
18 | N[C@@]1(C(=O)O)CN(S(=O)(=O)NCCO)C[C@@H]1CCCB(O)O (racemic) [Example 10, (rac)trans-3-amino-4-(3-boronopropyl)-1-(N-(2-hydroxyethyl)sulfamoyl)pyrrolidine-3-carboxylic acid (1:1), 2,2,2-trifluoroacetic acid salt] | 100 to 1000 nM
19 | N[C@@H]1C[C@H]1NS(=O)(=O)N1C[C@H](CCCB(O)O)[C@](N)(C(=O)O)C1 (racemic) [Example 15, (3R,4S)-3-amino-1-(N-((rac)trans-2-aminocyclopropyl)sulfamoyl)-4-(3-boronopropyl)pyrrolidine-3-carboxylic acid (diastereomers), (1:2) 2,2,2-trifluoroacetic acid salt] | < 100 nM
20 | CC1(C)[C@H]2C[C@@H]3OB(CCC[C@H]4CN(S(=O)(=O)NCCN)C[C@@]4(N)C(=O)O)O[C@]3(C)[C@@H]1C2 (racemic) [Example 36] | < 100 nM
21 | N[C@@]1(C(=O)O)CN(S(=O)(=O)N(CC2CC2)[C@@H]2CCNC2)C[C@@H]1CCCB(O)O [Example 70, (3R,4S)-3-amino-4-(3-boronopropyl)-1-(N-(cyclopropylmethyl)-N-((R)-pyrrolidin-3-yl)sulfamoyl)pyrrolidine-3-carboxylic acid, 2,2,2-trifluoroacetic acid salt (1:2)] | < 100 nM
22 | N[C@@H](CNS(=O)(=O)N1C[C@H](CCCB(O)O)[C@](N)(C(=O)O)C1)C(=O)O (racemic) [Example 56] | 100 to 1000 nM
23 | NC1CC1N(CC1CC1)S(=O)(=O)N1C[C@H](CCCB(O)O)[C@](N)(C(=O)O)C1 (stereo partly drawn) [Example 69, (3R,4S)-3-amino-1-(trans-N-(2-aminocyclopropyl)-N-(cyclopropylmethyl)sulfamoyl)-4-(3-boronopropyl)pyrrolidine-3-carboxylic acid, 2,2,2-trifluoroacetic acid salt (1:2)] | < 100 nM
24 | N[C@@]1(C(=O)O)CN(S(=O)(=O)N(c2ccccc2)C2CNC2)C[C@@H]1CCCB(O)O [Example 64, (3R,4S)-3-amino-1-(N-(azetidin-3-yl)-N-phenylsulfamoyl)-4-(3-boronopropyl)pyrrolidine-3-carboxylic acid, 2,2,2-trifluoroacetic acid salt (1:2)] | < 100 nM
25 | N[C@H]1CC1NS(=O)(=O)N1C[C@H](CCCB(O)O)[C@](N)(C(=O)O)C1 (relative stereo) [Example 40, (3R,4S)-3-amino-1-(N-((cis)-2-aminocyclopropyl)sulfamoyl)-4-(3-boronopropyl)pyrrolidine-3-carboxylic acid, 2,2,2-trifluoroacetic acid salt (1:2)] | 100 to 1000 nM
26 | CN(C)CCN(C)S(=O)(=O)N1C[C@H](CCCB(O)O)[C@](N)(C(=O)O)C1 (racemic) [Example 45, (racemic)-trans-3-amino-4-(3-boronopropyl)-1-(N-(2-(dimethylamino)ethyl)-N-methylsulfamoyl)pyrrolidine-3-carboxylic acid, 2,2,2-trifluoroacetic acid salt (1:2)] | 100 to 1000 nM
27 | CC1(NS(=O)(=O)N2C[C@H](CCCB(O)O)[C@](N)(C(=O)O)C2)CNC1 (racemic) [Example 43, (rac)-trans-3-amino-4-(3-boronopropyl)-1-(N-(3-methylazetidin-3-yl)sulfamoyl)pyrrolidine-3-carboxylic acid, 2,2,2-trifluoroacetic acid salt (1:2)] | 100 to 1000 nM

Same assay, conditions: read-out: Arg 1 enzymatic potency; recombinant human arginase 1; 37° C. for 120 min; urea detection

Row | Compound | IC50
28 | (rac)trans-3-amino-1-(N-((S)-2-aminopropyl)sulfamoyl)-4-(3-boronopropyl)pyrrolidine-3-carboxylic acid (diastereomers), 2,2,2-trifluoroacetic acid salt (1:2) [Example 18] | 100 to 1000 nM
